Columns and labels:
Assay in all cases: Mouse protection test: i.p. infection, s.c. treatment with the antibiotic alone or combined with muramyl peptide, survivors counted
Format in all cases: in vivo, weisse Laboratoriums-Mäuse
Pasteurella multocida = details: mice infected i.p. with 0,1 x 10^4 cfu Pasteurella multocida; Cefroxadin s.c. immediately and 3 h after infection, combined with 10 mg/kg N-Acetyl-muramyl-L-alanyl-D-isoglutaminyl-L-alanyl-2-(1',2'-dipalmitoyl-sn-glycero-3'-hydroxyphosphoryloxy)-äthylamid, compared with Cefroxadin alone; survivors counted after 4 or 10 days
Excerpt: (§1) Die hohe antibiotische Wirkung der neuen Präparate und des neuen Verfahrens kann durch "in vivo"-Versuche nachgewiesen werden, die an verschiedenen Tierarten, insbesondere an Säugetieren, wie Mäusen, durchgeführt werden. Dazu infiziert man sie mit einer letalen oder subletalen Dosis eines pathogenen Mikroorganismus und gibt dann das genannte neue Präparat bzw. die einzelnen Dosen an Muramylpeptid und Antibiotikum. Die Wirkung wird als ED50 bestimmt, das ist diejenige Dosis, bei der 50% der Tiere überleben.
(§2) Beispiel 4: Man infiziert weisse Laboratoriums-Mäuse auf i.p. Wege mit 2 x 10^4 cfu (colony forming units) Klebsiella pneumoniae, 0,1 x 10^4 cfu Pasteurella multocida oder 40 x 10^4 cfu Salmonella typhimurium in Salzlösung, so dass 90-100Z der nicht behandelten Kontrolltiere innerhalb von 48 Stunden getötet werden. Unmittelbar, sowie 3 Stunden nach der Infektion werden Gruppen zu je 10 Mäusen mit Cefroxadin, sowohl allein (ohne Muramylpeptid) als auch in Kombination mit 10 mg/kg N-Acetyl-muramyl-L-alanyl-D-isoglutaminyl-L-alanyl-2-(1',2'-dipalmitoyl-sn-glycero-3'-hydroxyphosphoryloxy)-äthylamid behandelt, wobei dieselben zweimal in Form wässriger Lösungen oder Suspensionen auf subkutanem Weg verabreicht werden. Nach 4 bzw. 10 Tagen nach erfolgter Infektion wurden die überlebenden Tiere gezählt.

Salmonella typhimurium = details: mice infected i.p. with 40 x 10^4 cfu Salmonella typhimurium; Cefroxadin s.c. immediately and 3 h after infection, combined with 10 mg/kg N-Acetyl-muramyl-L-alanyl-D-isoglutaminyl-L-alanyl-2-(1',2'-dipalmitoyl-sn-glycero-3'-hydroxyphosphoryloxy)-äthylamid, compared with Cefroxadin alone; survivors counted after 4 or 10 days
Excerpt: as §1, §2

Klebsiella pneumoniae = details: mice infected i.p. with 2 x 10^4 cfu Klebsiella pneumoniae; Cefroxadin s.c. immediately and 3 h after infection, combined with 10 mg/kg N-Acetyl-muramyl-L-alanyl-D-isoglutaminyl-L-alanyl-2-(1',2'-dipalmitoyl-sn-glycero-3'-hydroxyphosphoryloxy)-äthylamid, compared with Cefroxadin alone; survivors counted after 4 or 10 days
Excerpt: as §1, §2

Measured: ED50-Werte für das Antibiotikum bei kombinierter Gabe mit dem Muramylpeptid

COC1=C(C(=O)O)N2C(=O)[C@@H](NC(=O)[C@H](N)C3=CCC=CC3)[C@H]2SC1 [Cefroxadin, 7ß-[D-2-amino-2-(1,4-cyclohexadienyl)-acetamido]-3-methoxy-3-cephem-4-carbonsäure]
um ein Mehrfaches niedriger: all assays above

From patent publication EP0056560A1, “Active antibiotic compositions, process for their manufacture and process for the antibiotic activity of antibiotics” (CIBA-GEIGY AG, priority 1981, dated 1982)
